Source: patent publication US12411128B2, “Methods and apparatuses for prediction of mechanism of activity of compounds” (The Regents of the University of California, priority 2017, dated 2025)

What was measured:
[1] = tested on: human ventricular cardiac tissue strips (hvCTS); assay: binary SVM cardioactivity index from hvCTS twitch force readouts; format: cell-based; conditions: for cardioactivity versus vehicle-treated hvCTS by binary SVM accuracy: over tested concentration range, Student's t-test with Bonferroni correction
Description: The binary SVM is capable of summarizing all parameters and providing a simple metric that expresses a compound's degree of cardioactivity at a given dosage (Lee et al., 2015). […] As a result, a SVM accuracy metric is calculated to reflect the machine's ability to identify a cardioactive effect (e.g. 75% accuracy means that out of 100 data points, the machine could correctly classify 75 of them). To account for variations within the data set, multiple runs are performed to calculate the mean SVM accuracy. […] Prominent cardioactive effects allow the space between the data from treated and control conditions to become more distinguishable, leading to a higher SVM accuracy with 100% being the maximum.
Although the hvCTSs (FIG. 3, A) were examined under temperature-controlled conditions, there was an observable drift in contractile behavior of the vehicle-treated hvCTSs. For example, the relative measured maximum developed force increased for all pacing frequencies by a cumulative average of 16.96±0.83% upon the ninth serial addition (FIG. 3, B). To account and normalize for baseline drift, each drug condition was compared to its respective vehicle condition via binary SVM (e.g., measurements of the 7th serial drug addition were compared to those of vehicle-treated hvCTSs at the 7th serial addition). To establish a benchmark of non-cardioactivity, a subset of the vehicle-treated hvCTSs were randomly selected to model a non-cardioactive compound. Binary SVM was then performed between the subset and a corresponding control group of equal size (n).
Human ventricular cardiomyocytes were differentiated from a hES2 stem cell line with a Wnt inhibitor-based protocol as previously described (Weng et al., 2014). Human ventricular cardiac tissue strips (hvCTS) were then formed by mixing cardiomyocytes (100 k cells per strip) at 14-16 days post differentiation with a solution of bovine collagen I (2 mg/mL), Matrigel (0.9 mg/mL), and human foreskin fibroblasts (100 k cells per strip) as previously described (Turnbull et al., 2014). The cell-matrix solution (100 uL per tissue strip) was injected into a custom PDMS force-sensing bioreactor device and placed in an incubator (37° C. and 5% CO2). Formed hvCTSs were fed DMEM with 10% new born calf serum, 1% penicillin-streptomycin and 0.1% amphotericin B. The PDMS device contains two flexible vertical end-posts to which the tissue anchors, causing the posts to deflect as the tissue beats. Contractile force measurements were captured with a high speed (100 fps) CCD camera while custom LabVIEW software tracked the centroid movement of the flexible post tips. Force was converted from the deflection of the PDMS posts by an elastic beam bending equation (Serrao et al., 2012). […]

[2] = tested on: human ventricular cardiac tissue strips (hvCTS); assay: class relationship metrics: binary SVM with Gaussian fit between 'unknown' and library compound; format: cell-based; conditions: for Estimated Similar Concentration of digoxin: ouabain at 1.0 × 10^−5 M
Description: Once the drug classes were predicted, the concentrations of library compounds that induced the most similar cardioactive effects as the ‘unknown’ compounds were computed (FIG. 7; protocol in Example 5).
The concentration of a library compound that induced the most similar cardioactive effects as the compound of interest was determined. This class relationship metric was computed by first selecting the compound of interest at a desired concentration and performing a series of binary SVM among the tested range of a library compound. For each concentration of the library compound, the closer the SVM accuracy was to 50%, the more defined boundaries of the compounds overlapped and the more similar the cardioactive effects were. This relationship between SVM accuracy and tested concentration range was presumed to behave in a Gaussian manner with the centroid representing the concentration that would elicit the most similar effects. The Gaussian fit was set with 50% as the lower limit and the highest achieved SVM accuracy as the upper limit. If the original SVM accuracies reached the 50% mark and remained around this value for subsequent concentrations, only the first concentration to reach the 50% was included in the fit to accurately model one side of the Gaussian curve.

[3] = tested on: human ventricular cardiac tissue strips (hvCTS); assay: individual contractile force parameters of electrically paced hvCTS; conditions: for change of duration of relaxation phase / change of max force: increasing concentration up to 10^−4 M (100 μM)
Text: Each of the compounds, with the exception of aspirin, belonged to one of five classes with each class comprising a minimum of two compounds. Aspirin functioned as a reference for a cardiac-neutral compound. […] The parameters include: • 1. Desired pacing frequency. • 2. Captured pacing frequency. • 3. Max force generated (amplitude). • 4. […] Max change of force over time ([…]F/[…]t) of contraction phase. • 9. Max change of force over time ([…]F/[…]t) of relaxation phase. • 10. Duration of rise from 50% cutoff to max force. • 11. Duration of decline from max force to 50% cutoff. • 12. Area under the curve of rise from 50% cutoff to max force. • 13. Area under the curve of decline from max force to 50% cutoff. • 14. […] Area under the curve of rise from 50% cutoff to max force. • 17. Area under the curve of decline from max force to 50% cutoff.
The cell-matrix solution (100 uL per tissue strip) was injected into a custom PDMS force-sensing bioreactor device and placed in an incubator (37° C. and 5% CO2). Formed hvCTSs were fed DMEM with 10% new born calf serum, 1% penicillin-streptomycin and 0.1% amphotericin B. The PDMS device contains two flexible vertical end-posts to which the tissue anchors, causing the posts to deflect as the tissue beats. Contractile force measurements were captured with a high speed (100 fps) CCD camera while custom LabVIEW software tracked the centroid movement of the flexible post tips. […] A custom MATLAB script was used to calculate 17 parameters that described the overall shape of the force traces for each contractile event (FIG. 1). Each contraction was regarded as an individual data point for the machine learning analysis.
After 7-8 days post tissue formation, hvCTS were exposed to drugs for pharmacodynamic analysis. Flecainide, lisinopril, norepinephrine and ramipril were provided by Pfizer, while all other compounds were purchased form Sigma-Aldrich. Compounds were initially resuspended in DMSO and subsequently diluted in water for final concentrations composed of less than 0.1% (vol/vol) DMSO. The PDMS device containing the hvCTS was placed onto a heated stage (37° C.) under a dissecting microscope. Before either vehicle or drug addition, the media was replaced with DMEM containing high glucose (4.5 g/L) and HEPES without phenol red. Drug doses were added to a tissue in consecutively increasing manner up to 10 concentrations with 3 minutes in between measurements. Vehicle doses containing only water were applied similarly. A pulse stimulator (AMPI Master-9) connected to platinum wires electrically paced the hvCTS with a monophasic electric field of 5 V/cm with a 10 ms pulse duration.
SVM accuracies of strips exposed to a drug condition were compared to those of the non-cardioactive benchmark by using Student's t-test (desired a value of 0.05) with a Bonferroni correction (m, number of tests or hypotheses, was dependent on the number of drug additions in a screen). […] The Bonferroni correction was also applied when examining changes in specific parameters.

## CCOC(=O)[C@H](CCc1ccccc1)N[C@@H](C)C(=O)N1[C@H](C(=O)O)C[C@@H]2CCC[C@@H]21 [Ramipril]
[1]
  cardioactivity versus vehicle-treated hvCTS by binary SVM accuracy: did not have detectable cardioactive effects

## CC(=O)Oc1ccccc1C(=O)O [Aspirin]
[1]; binary SVM vs vehicle-treated hvCTS, 10 nM to 100 μM, n=6
  SVM accuracy, average among all serial additions: 52.85±1.77%
[1]
  cardioactivity versus vehicle-treated hvCTS by binary SVM accuracy: non-cardioactivity

## NC[C@H](O)c1ccc(O)c(O)c1 [Norepinephrine]
[2]; norepinephrine at 1.0 × 10^−5 M, centroid of Gaussian fit
  Estimated Similar Concentration of isoproterenol: (1.44 × 10^−6) M

## C[C@@H]1O[C@@H](O[C@H]2C[C@@H](O)[C@]3(CO)[C@H]4[C@H](O)C[C@]5(C)[C@@H](C6=CC(=O)OC6)CC[C@]5(O)[C@@H]4CC[C@]3(O)C2)[C@H](O)[C@H](O)[C@H]1O [Ouabain]
[2]; ouabain 1.0×10^−5 M vs digoxin 5.35×10^−5 M
  fold lower concentration than digoxin to achieve the same level of cardioactivity: approximately 5 fold
[2]; centroid of Gaussian fit
  Estimated Similar Concentration of digoxin: Digoxin (5.35 × 10^−5) M
[2]; centroid of Gaussian fit, listed as ouabain
  Estimated Similar Concentration of digoxin: 53.5 µM
[3]; 100 μM
  treated strips that stopped beating at all pacing frequencies: 4 of the 10

## C[C@H]1O[C@@H](O[C@H]2[C@@H](O)C[C@H](O[C@H]3[C@@H](O)C[C@H](O[C@H]4CC[C@@]5(C)[C@H](CC[C@@H]6[C@@H]5C[C@@H](O)[C@]5(C)[C@@H](C7=CC(=O)OC7)CC[C@]65O)C4)O[C@@H]3C)O[C@@H]2C)C[C@H](O)[C@@H]1O [Digoxin]
[3]; paced at 0.5 Hz
  change of duration of relaxation phase: increase in duration of relaxation phase
  change of max force: decrease in max force

## CC(C)NCC(O)c1ccc(O)c(O)c1 (stereo not shown) [Isoproterenol]
[3]; 10 μM
  decrease of duration of the relaxation phase (time from maximum developed force to 95% cutoff): 22.19±19.35%
[3]; 10 μM, paced at 0.5 Hz
  increase in maximum developed force: 10.42±16.23%
[3]; paced at 0.5 Hz, 3.0×10^−7 to 10^−5 M, n=10
  duration of the relaxation phase versus the vehicle study (lusitropic effect): decreased significantly
[3]; paced hvCTS (nifedipine 1 Hz; isoproterenol 10 μM, 0.5 Hz)
  inotropic effect: negligible inotropic effects

## COc1cc(N)c(Cl)cc1C(=O)NC1CCN(CCCOc2ccc(F)cc2)CC1OC (stereo not shown) [Cisapride]
[2]; cisapride at 1.0 × 10^−4 M, centroid of Gaussian fit
  Estimated Similar Concentration of flecainide: Flecainide (1.03 × 10^−5) M
[3]; paced at 0.5 Hz
  change of duration of relaxation phase: increased
  change of max force: decreased

## NCCCC[C@H](N[C@@H](CCc1ccccc1)C(=O)O)C(=O)N1CCC[C@H]1C(=O)O [Lisinopril]
[1]
  cardioactivity versus vehicle-treated hvCTS by binary SVM accuracy: did not have detectable cardioactive effects

## COCC(=O)O[C@]1(CCN(C)CCCc2nc3ccccc3[nH]2)CCc2cc(F)ccc2[C@@H]1C(C)C [Mibefradil]
[2]; mibefradil at 3.0 × 10^−6 M, centroid of Gaussian fit
  Estimated Similar Concentration of nifedipine: Nifedipine (1.28 × 10^−7) M
